Like-named read-outs stand apart in the source and are kept apart here.
What was measured:
[1] = tested on: Amaranthus retroflexus (pigweed); assay: Enhancement of herbicide activity: pre-emergence Amaranthus kill with metribuzin; type: in vivo; details: for pest or weed control at 100 g/ha: Amaranthus retroflexus; for enhancement of metribuzin herbicidal activity: compound at 100 g/ha with metribuzin, at seven and fourteen days
Description: Specifically, Amaranthus retroflexus (pigweed) was treated pre-emergence with metribuzin alone or in combination with an enhancer compound disclosed herein. Fifteen seeds of Amaranthus retroflexus were sown in soil in each pot and then sprayed with a mixture of metribuzin at the appropriate rate shown in Table 5 and the compound of this invention at 100 g/ha using a track sprayer at a water volume of 200 L/hectare. Small amounts of acetone were used to aid solubility. The pots were watered immediately after sowing and treatment and then allowed to stand in a glasshouse. Assessment of kill was made seven and fourteen days after treatment. The test included four replicates for each treatment and the control.

[2] = tested on: apyrase; assay: Apyrase inhibition assay (screen for apyrase inhibitors, phosphate release read at 630 nm); type: biochemical; details: inhibitor conc at 1 mM (10 μl added), 3 mM ATP, pH 6.5, room temperature 1 hr
[3] = tested on: Brown Rust (Puccinia recondita) on wheat; assay: Greenhouse crop test: control of Brown Rust on wheat in combination with commercial fungicides; type: in vivo; details: wheat JB Diego, inoculated 24 hours after treatment, evaluated at fourteen days; for Amistar (% control of the disease, compound + fungicide): with Amistar 0.04 L/ha; for Balaya (% control of the disease, compound + fungicide): with Balaya 0.25 L/ha; for Imtrex (% control of the disease, compound + fungicide): with Imtrex 0.45 L/ha; for Proline (% control of the disease, compound + fungicide): with Proline 0.15 L/ha
Description: In this method, exemplary compounds were evaluated for their ability to control Brown Rust (Puccinia recondita) on wheat in a controlled greenhouse environment in combination with one of four fungicides, Amistar, Imtrex, Proline or Balaya. In these studies, wheat plants (JB Diego) were used. Seeds were sown in 9 cm diameter pots to a depth of 1 to 2 cm using Petersfield potting compost (75% medium grade peat, 12% screened sterilized loam, 3% medium grade vermiculite, 10% grit (5 mm screened, lime free), 1.5 kg PG mix per m3, lime to pH5.5-6.0 and wetting agent (Vitax Ultrawet 200 ml per m3) and germinated/grown at 23 C under a 16 h day/8 h night light regime. Plants were treated two to three weeks after sowing when they were at the BBCH 11 growth stage ([…]). Wheat plants were inoculated with Puccinia triticina (Brown rust) 24 hours after treatment. A track sprayer was used to treat the plants with the mixture of commercial fungicide and test compound using a water volume of 200 L/ha. Four replicates were used for each combination of fungicide, pathogen and test compound. Each plant was evaluated at fourteen days (once the disease symptoms were fully expressed) for % control of the disease. Appropriate controls were used for all experiments, including an ‘inoculation check’ wherein plants were inoculated with their specific pathogen to assess disease levels. Also, each commercial fungicide was tested on its own as a part of each treatment, this being benchmark against which the experimental compounds were evaluated. […] That is, the present compounds, although not fungicidal by themselves, enhance the activity of fungicides, thus the enhancer compounds work synergistically in combination with fungicides to control disease. • Amistar (0.04 L/ha) • Imtrex (0.45 L/ha) • Proline (0.15 L/ha) • Balaya (0.25 L/ha)

[4] = 168 h, read-out: Pre-Emergence Amaranthus Kill Percentage, Assessed 7 DAT, Metribuzin rate 50 g/ha
[5] = 168 h, read-out: Pre-Emergence Amaranthus Kill Percentage, Assessed 7 DAT, Metribuzin rate 100 g/ha
[6] = 168 h, read-out: Pre-Emergence Amaranthus Kill Percentage, Assessed 7 DAT, Metribuzin rate 200 g/ha
[7] = 336 h, read-out: Pre-Emergence Amaranthus Kill Percentage, Assessed 14 DAT, Metribuzin rate 50 g/ha
[8] = 336 h, read-out: Pre-Emergence Amaranthus Kill Percentage, Assessed 14 DAT, Metribuzin rate 100 g/ha
[9] = 336 h, read-out: Pre-Emergence Amaranthus Kill Percentage, Assessed 14 DAT, Metribuzin rate 200 g/ha

| Structure (SMILES) | pest or weed control at 100 g/ha [1, 4] [%] | pest or weed control at 100 g/ha [1, 5] [%] | pest or weed control at 100 g/ha [1, 6] [%] | pest or weed control at 100 g/ha [1, 7] [%] | pest or weed control at 100 g/ha [1, 8] [%] | pest or weed control at 100 g/ha [1, 9] [%] | enhancement of metribuzin herbicidal activity [1] | Inhibition [2] | Amistar (% control of the disease, compound + fungicide) [3] [%] | Balaya (% control of the disease, compound + fungicide) [3] [%] | Imtrex (% control of the disease, compound + fungicide) [3] [%] | Proline (% control of the disease, compound + fungicide) [3] [%] |
| --- | --- | --- | --- | --- | --- | --- | --- | --- | --- | --- | --- | --- |
| Cc1ccnc(NS(=O)(=O)c2ccc(CC#N)cc2)n1 [Compound A-21, 4-(cyanomethyl)-N-(4-methylpyrimidin-2-yl)benzenesulfonamide] | 0 | 62.3 | 100 | 4.4 | 63 | 100 | significant enhancement | A (A is inhibition above 30%) | 48.5 | 39.0 | 47.7 | 1.2 |
| COc1cccc(NS(=O)(=O)c2ccc(-c3ccccc3)cc2)c1 [Compound A-3, N-(3-methoxyphenyl)-[1,1′-biphenyl]-4-sulfonamide] | 15.6 | 68.9 | 34 | 21.7 | 72 | 38.5 | significant enhancement | A (A is inhibition above 30%) | 81.4 | 38.9 | 47.6 | 3.8 |
| O=S(=O)(Nc1ccc2c(c1)CCCN2)c1ccc(-c2ccccc2)cc1 [Compound A-99, N-(1,2,3,4-tetrahydroquinolin-6-yl)-[1,1′-biphenyl]-4-sulfonamide] |  |  |  |  |  |  |  | A (A is inhibition above 30%) | 71.4 | 84.1 | 16.1 | 5.7 |
| O=S(=O)(Nc1ccc(-c2nncs2)cc1)c1ccc(-c2ccccc2)cc1 [Compound A-29, N-(4-(1,3,4-thiadiazol-2-yl)phenyl)-[1,1′-biphenyl]-4-sulfonamide] | 13.2 | 66.7 | 87.7 | 17.1 | 71.4 | 90 | significant enhancement | A (A is inhibition above 30%) | 67.0 | 59.5 | 60.1 | 18.7 |
| Cc1cccc(NS(=O)(=O)c2ccc(CCC(=O)O)cc2)c1 [Compound A-103, 3-(4-(N-(m-tolyl)sulfamoyl)phenyl) propanoic acid] | 5.1 | 54.7 | 91.5 | 30.6 | 43.1 | 98.4 | significant enhancement | B (B is inhibition from 20% to 30%) | 37.0 | 67.2 | 13.2 | 4.4 |
| CN(c1ccccc1)S(=O)(=O)c1ccc(-c2ccccc2)cc1 [Compound A-10, N-methyl-N-phenyl-[1,1′-biphenyl]-4-sulfonamide] |  |  |  |  |  |  |  | A (A is inhibition above 30%) | 87.4 | 56.5 | 15.0 | 4.2 |
| COc1cccc(NS(=O)(=O)c2ccc(-c3ccc(C)cc3)cc2)c1 [Compound A-34, N-(3-methoxyphenyl)-4′-methyl-[1,1′-biphenyl]-4-sulfonamide] | 28.3 | 70.5 | 100 | 37.3 | 77.8 | 100 | significant enhancement | A (A is inhibition above 30%) | 51.9 | 48.3 | 34.5 | 3.8 |
| O=C1Cc2cc(NS(=O)(=O)c3ccc(-c4ccccc4)cc3)ccc2N1 [Compound A-8, N-(2-oxoindolin-5-yl)-[1,1′-biphenyl]-4-sulfonamide] | 12.8 | 28.6 | 100 | 18.8 | 35.7 | 100 | significant enhancement | A (A is inhibition above 30%) | 72.9 | 77.2 | 47.8 | 13.3 |
| CCCc1ccc(S(=O)(=O)Nc2cccc(C)c2)cc1 [Compound A-62, 4-propyl-N-(m-tolyl)benzenesulfonamide] | 23.5 | 58.9 | 95.8 | 35.7 | 61 | 96 | significant enhancement | A (A is inhibition above 30%) | 71.7 | 21.7 | 38.8 | 1.4 |
| Cc1ccc(C(=O)N(C)C)cc1NS(=O)(=O)c1ccc(-c2ccccc2)cc1 [Compound A-108, 3-([1,1′-biphenyl]-4-sulfonamido)-N,N,4-trimethylbenzamide] | 6.3 | 76.5 | 100 | 13.5 | 78.8 | 100 | significant enhancement | A (A is inhibition above 30%) | 92.1 | 31.7 | 40.5 | −1.2 |
| Cc1ccccc1NS(=O)(=O)c1ccc(-c2ccccc2)cc1 [Compound A-9, N-(o-tolyl)-[1,1′-biphenyl]-4-sulfonamide] |  |  |  |  |  |  |  | A (A is inhibition above 30%) | 65.5 | 54.9 | −13.9 | 12.4 |
| O=S(=O)(Nc1cccc(C(F)(F)F)c1)c1cnc(-c2ccccc2)nc1 [Compound A-37, 2-phenyl-N-(3-(trifluoromethyl)phenyl)pyrim-idine-5-sulfonamide] |  |  |  |  |  |  |  | B (B is inhibition from 20% to 30%) | 58.7 | 78.0 | 12.7 | −1.2 |

Source: patent US20250275539A1, “APYRASE INHIBITORS” (Texas Crop Science, Inc., priority 2024, published 2025)
